{"source": "PubChem BioAssay (NCI)", "assay_in_all_cases": "inhibition of tumour cell growth, NCI panel, 48 h", "key": {"MALME-3M melanoma": {"system": "MALME-3M melanoma"}, "LOX IMVI melanoma": {"system": "LOX IMVI melanoma"}, "TK-10 renal": {"system": "TK-10 renal"}, "EKVX NSCLC": {"system": "EKVX NSCLC"}, "UACC-62 melanoma": {"system": "UACC-62 melanoma"}, "NCI-H23 lung": {"system": "NCI-H23 lung"}, "OVCAR-8 ovarian": {"system": "OVCAR-8 ovarian"}, "RPMI-8226 leukemia": {"system": "RPMI-8226 leukemia"}, "HL-60(TB) leukemia": {"system": "HL-60(TB) leukemia"}, "SF-539 CNS": {"system": "SF-539 CNS"}}, "note": "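Where inhibition never reached the appropriate level, the endpoint shown equals the highest concentration tested. Otherwise, values were interpolated linearly from a five-concentration, 48-hour dose response in 96-well plates. GI50 = concentration required for 50% inhibition of growth. The concentration for full growth arrest is given as TGI.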", "data": [{"smiles": "CN(Cc1cnc2nc(N)nc(N)c2n1)c1ccc(C(=O)NC(CCC(=O)NC(CC(P(=O)(O)O)P(=O)(O)O)C(=O)O)C(=O)O)cc1", "note": "(centres undefined)", "values": [{"measurement": "TGI", "setting": "MALME-3M melanoma", "result": "> 100", "unit": "µM"}, {"measurement": "TGI", "setting": "LOX IMVI melanoma", "result": "> 100", "unit": "µM"}, {"measurement": "TGI", "setting": "TK-10 renal", "result": "> 100", "unit": "µM"}, {"measurement": "TGI", "setting": "EKVX NSCLC", "result": "> 100", "unit": "µM"}, {"measurement": "TGI", "setting": "UACC-62 melanoma", "result": "> 100", "unit": "µM"}, {"measurement": "TGI", "setting": "NCI-H23 lung", "result": "> 100", "unit": "µM"}, {"measurement": "TGI", "setting": "OVCAR-8 ovarian", "result": "> 100", "unit": "µM"}]}, {"smiles": "NC(CC(O)(c1ccccc1)c1ccccc1)c1ccccc1S", "note": "(centres undefined)", "values": [{"measurement": "TGI", "setting": "MALME-3M melanoma", "result": 54.8, "unit": "µM"}, {"measurement": "TGI", "setting": "LOX IMVI melanoma", "result": 30.5, "unit": "µM"}, {"measurement": "TGI", "setting": "TK-10 renal", "result": 29.7, "unit": "µM"}, {"measurement": "TGI", "setting": "EKVX NSCLC", "result": 25.1, "unit": "µM"}, {"measurement": "TGI", "setting": "UACC-62 melanoma", "result": 32, "unit": "µM"}, {"measurement": "TGI", "setting": "RPMI-8226 leukemia", "result": 68.3, "unit": "µM"}, {"measurement": "TGI", "setting": "NCI-H23 lung", "result": 37.7, "unit": "µM"}, {"measurement": "TGI", "setting": "HL-60(TB) leukemia", "result": 59.5, "unit": "µM"}]}, {"smiles": "Clc1ccc(C2CC(c3cccc(Nc4ccncc4)c3)=NN2c2cc(Cl)cc(Cl)c2)cc1", "note": "(centres undefined)", "values": [{"measurement": "GI50", "setting": "MALME-3M melanoma", "result": 1.77, "unit": "µM"}, {"measurement": "TGI", "setting": "MALME-3M melanoma", "result": 3.68, "unit": "µM"}, {"measurement": "GI50", "setting": "TK-10 renal", "result": 1.93, "unit": "µM"}, {"measurement": "TGI", "setting": "TK-10 renal", "result": 3.7, "unit": "µM"}, {"measurement": "GI50", "setting": "EKVX NSCLC", "result": 1.6, "unit": "µM"}, {"measurement": "TGI", "setting": "EKVX NSCLC", "result": 3.12, "unit": "µM"}, {"measurement": "GI50", "setting": "UACC-62 melanoma", "result": 1.77, "unit": "µM"}, {"measurement": "TGI", "setting": "UACC-62 melanoma", "result": 3.29, "unit": "µM"}, {"measurement": "GI50", "setting": "SF-539 CNS", "result": 1.69, "unit": "µM"}, {"measurement": "TGI", "setting": "SF-539 CNS", "result": 3.2, "unit": "µM"}, {"measurement": "GI50", "setting": "NCI-H23 lung", "result": 1.71, "unit": "µM"}, {"measurement": "TGI", "setting": "NCI-H23 lung", "result": 3.34, "unit": "µM"}, {"measurement": "GI50", "setting": "HL-60(TB) leukemia", "result": 2.2, "unit": "µM"}, {"measurement": "TGI", "setting": "HL-60(TB) leukemia", "result": 5.05, "unit": "µM"}]}, {"smiles": "CC(C)(C)OC(=O)N1[C@@H]2Cc3ccc(N)cc3[C@@]1(C)c1ccccc12", "values": [{"measurement": "TGI", "setting": "MALME-3M melanoma", "result": 91, "unit": "µM"}, {"measurement": "TGI", "setting": "LOX IMVI melanoma", "result": 62.1, "unit": "µM"}, {"measurement": "TGI", "setting": "TK-10 renal", "result": "> 100", "unit": "µM"}, {"measurement": "TGI", "setting": "EKVX NSCLC", "result": "> 100", "unit": "µM"}, {"measurement": "TGI", "setting": "UACC-62 melanoma", "result": 53.6, "unit": "µM"}, {"measurement": "TGI", "setting": "RPMI-8226 leukemia", "result": 48.6, "unit": "µM"}, {"measurement": "TGI", "setting": "NCI-H23 lung", "result": 60.4, "unit": "µM"}, {"measurement": "TGI", "setting": "HL-60(TB) leukemia", "result": 44.9, "unit": "µM"}]}, {"smiles": "COc1ccc(CNc2nc3cc(C(F)(F)F)ccc3nc2-c2ccccc2)cc1OC", "values": [{"measurement": "TGI", "setting": "MALME-3M melanoma", "result": "> 100", "unit": "µM"}, {"measurement": "TGI", "setting": "LOX IMVI melanoma", "result": 76.8, "unit": "µM"}, {"measurement": "TGI", "setting": "TK-10 renal", "result": "> 100", "unit": "µM"}, {"measurement": "TGI", "setting": "EKVX NSCLC", "result": "> 100", "unit": "µM"}, {"measurement": "TGI", "setting": "UACC-62 melanoma", "result": "> 100", "unit": "µM"}, {"measurement": "TGI", "setting": "SF-539 CNS", "result": "> 100", "unit": "µM"}, {"measurement": "TGI", "setting": "NCI-H23 lung", "result": "> 100", "unit": "µM"}, {"measurement": "TGI", "setting": "HL-60(TB) leukemia", "result": "> 100", "unit": "µM"}, {"measurement": "TGI", "setting": "OVCAR-8 ovarian", "result": "> 100", "unit": "µM"}]}, {"smiles": "CCOC(=O)CCC(NC(=O)Cc1ccc(Oc2nc3ccccc3nc2-c2ccccc2)cc1)C(=O)OCC", "note": "(centres undefined)", "values": [{"measurement": "TGI", "setting": "MALME-3M melanoma", "result": "> 100", "unit": "µM"}, {"measurement": "TGI", "setting": "TK-10 renal", "result": "> 100", "unit": "µM"}, {"measurement": "TGI", "setting": "EKVX NSCLC", "result": "> 100", "unit": "µM"}, {"measurement": "TGI", "setting": "UACC-62 melanoma", "result": "> 100", "unit": "µM"}, {"measurement": "TGI", "setting": "SF-539 CNS", "result": "> 100", "unit": "µM"}, {"measurement": "TGI", "setting": "RPMI-8226 leukemia", "result": "> 100", "unit": "µM"}, {"measurement": "TGI", "setting": "NCI-H23 lung", "result": "> 100", "unit": "µM"}, {"measurement": "TGI", "setting": "HL-60(TB) leukemia", "result": "> 100", "unit": "µM"}]}, {"smiles": "Cc1c2ccccc2c(C)n2c1nc1ccccc12", "values": [{"measurement": "TGI", "setting": "MALME-3M melanoma", "result": 23.5, "unit": "µM"}, {"measurement": "TGI", "setting": "TK-10 renal", "result": 44.4, "unit": "µM"}, {"measurement": "TGI", "setting": "EKVX NSCLC", "result": 54.9, "unit": "µM"}, {"measurement": "TGI", "setting": "UACC-62 melanoma", "result": 23.5, "unit": "µM"}, {"measurement": "TGI", "setting": "SF-539 CNS", "result": 18.6, "unit": "µM"}, {"measurement": "TGI", "setting": "RPMI-8226 leukemia", "result": "> 100", "unit": "µM"}, {"measurement": "TGI", "setting": "NCI-H23 lung", "result": 30.7, "unit": "µM"}, {"measurement": "TGI", "setting": "HL-60(TB) leukemia", "result": "> 100", "unit": "µM"}, {"measurement": "TGI", "setting": "OVCAR-8 ovarian", "result": "> 100", "unit": "µM"}]}, {"smiles": "COP(=O)(O)C(N)Cc1c[nH]c2ccccc12", "note": "(centres undefined)", "values": [{"measurement": "TGI", "setting": "LOX IMVI melanoma", "result": "> 100", "unit": "µM"}, {"measurement": "TGI", "setting": "TK-10 renal", "result": "> 100", "unit": "µM"}, {"measurement": "TGI", "setting": "RPMI-8226 leukemia", "result": "> 100", "unit": "µM"}, {"measurement": "TGI", "setting": "NCI-H23 lung", "result": "> 100", "unit": "µM"}, {"measurement": "TGI", "setting": "OVCAR-8 ovarian", "result": "> 100", "unit": "µM"}]}, {"smiles": "CC(=O)OC(C)(C)CCC(=O)[C@](C)(O)[C@H]1[C@H](O)C[C@@]2(C)[C@@H]3CC=C4C(C)=C(OC5OC(CO)C(O)C(O)C5O)C(=O)C[C@@H]4[C@]3(C)C(=O)C[C@]12C", "note": "(some centres undefined)", "values": [{"measurement": "TGI", "setting": "MALME-3M melanoma", "result": "> 100", "unit": "µM"}, {"measurement": "TGI", "setting": "LOX IMVI melanoma", "result": "> 100", "unit": "µM"}, {"measurement": "TGI", "setting": "TK-10 renal", "result": "> 100", "unit": "µM"}, {"measurement": "TGI", "setting": "EKVX NSCLC", "result": "> 100", "unit": "µM"}, {"measurement": "TGI", "setting": "UACC-62 melanoma", "result": "> 100", "unit": "µM"}, {"measurement": "TGI", "setting": "SF-539 CNS", "result": "> 100", "unit": "µM"}, {"measurement": "TGI", "setting": "NCI-H23 lung", "result": "> 100", "unit": "µM"}, {"measurement": "TGI", "setting": "OVCAR-8 ovarian", "result": "> 100", "unit": "µM"}]}, {"smiles": "CC(=O)Oc1cc(OC(C)=O)c2c(C)cc(=O)oc2c1", "values": [{"measurement": "TGI", "setting": "MALME-3M melanoma", "result": "> 100", "unit": "µM"}, {"measurement": "TGI", "setting": "LOX IMVI melanoma", "result": "> 100", "unit": "µM"}, {"measurement": "TGI", "setting": "TK-10 renal", "result": "> 100", "unit": "µM"}, {"measurement": "TGI", "setting": "EKVX NSCLC", "result": "> 100", "unit": "µM"}, {"measurement": "TGI", "setting": "UACC-62 melanoma", "result": "> 100", "unit": "µM"}, {"measurement": "TGI", "setting": "SF-539 CNS", "result": "> 100", "unit": "µM"}, {"measurement": "TGI", "setting": "RPMI-8226 leukemia", "result": "> 100", "unit": "µM"}, {"measurement": "TGI", "setting": "NCI-H23 lung", "result": "> 100", "unit": "µM"}, {"measurement": "TGI", "setting": "OVCAR-8 ovarian", "result": "> 100", "unit": "µM"}]}, {"smiles": "COc1cc(OC2OC(COC(=O)c3cc(O)c(O)c(O)c3)C(O)C(O)C2O)ccc1O", "note": "(centres undefined)", "values": [{"measurement": "TGI", "setting": "MALME-3M melanoma", "result": "> 100", "unit": "µM"}, {"measurement": "TGI", "setting": "LOX IMVI melanoma", "result": "> 100", "unit": "µM"}, {"measurement": "TGI", "setting": "TK-10 renal", "result": "> 100", "unit": "µM"}, {"measurement": "TGI", "setting": "EKVX NSCLC", "result": "> 100", "unit": "µM"}, {"measurement": "TGI", "setting": "SF-539 CNS", "result": "> 100", "unit": "µM"}, {"measurement": "TGI", "setting": "RPMI-8226 leukemia", "result": "> 100", "unit": "µM"}, {"measurement": "TGI", "setting": "NCI-H23 lung", "result": "> 100", "unit": "µM"}, {"measurement": "TGI", "setting": "HL-60(TB) leukemia", "result": "> 100", "unit": "µM"}, {"measurement": "TGI", "setting": "OVCAR-8 ovarian", "result": "> 100", "unit": "µM"}]}]}
